Experimental data: patent US20260262643A1, “HERBICIDAL BENZOXAZINES” (FMC CORPORATION, priority 2022, published 2026)

Experiments:
barnyardgrass [1] = assay: Test A preemergence; type: in vivo, Echinochloa crusgalli; details: visual injury after 10 days, 0 to 100 scale, 0 is no effect, 100 is complete control
Source text: (§1) Seeds of plant species selected from barnyardgrass (Echinochloa crusgalli), blackgrass (Alopecurus myosuroides), corn (Zea mays), foxtail, giant (giant foxtail, Setaria faberi), goosegrass (Eleusine indica), kochia (Bassia scoparia), oat, wild (wild oat, Avena fatua), pigweed, palmer (palmer amaranth, palmer pigweed, Amaranthus palmeri), Pigweed, Redroot (redroot pigweed, Amaranthus retroflexus), ragweed (common ragweed, Ambrosia artemisiifolia), ryegrass, Italian (italian ryegrass, Lolium multiflorum), soybean (Glycine max), and wheat (Triticum aestivum) were planted into a blend of loam soil and sand and treated preemergence with a directed soil spray using test chemicals formulated in a non-phytotoxic solvent mixture which included a surfactant. At the same time, plants selected from these crops and weed species and also galium (catchweed bedstraw, Galium aparine) and horseweed (Erigeron canadensis) were planted in pots containing the same blend of loam soil and sand and treated with postemergence applications of test chemicals formulated in the same manner. Plants ranged in height from 2 to 10 cm and were in the one- to two-leaf stage for the postemergence treatment. Treated plants and untreated controls were maintained in a greenhouse for 10 days, after which time all treated plants were compared to untreated controls and visually evaluated for injury. Plant response ratings, summarized in Table A, are based on a 0 to 100 scale where 0 is no effect and 100 is complete control. A dash (-) response means no test result.

blackgrass [2] = assay: Test A preemergence; type: in vivo, Alopecurus myosuroides; details: visual injury after 10 days, 0 to 100 scale, 0 is no effect, 100 is complete control
How it was run: (§2)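 Greenhouse pot test, 10 days. Compound (non-phytotoxic solvent, surfactant) sprayed on soil at seeding or on seedlings at one- to two-leaf stage. Visual injury rated 0–100 against untreated plants.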

corn [3] = assay: Test A preemergence; type: in vivo, Zea mays; details: visual injury after 10 days, 0 to 100 scale, 0 is no effect, 100 is complete control
How it was run: as §2

kochia [4] = assay: Test A preemergence; type: in vivo, Bassia scoparia; details: visual injury after 10 days, 0 to 100 scale, 0 is no effect, 100 is complete control
How it was run: as §2

oat, wild [5] = assay: Test A preemergence; type: in vivo, Avena fatua; details: visual injury after 10 days, 0 to 100 scale, 0 is no effect, 100 is complete control
How it was run: as §2

pigweed, palmer [6] = assay: Test A preemergence; type: in vivo, Amaranthus palmeri; details: visual injury after 10 days, 0 to 100 scale, 0 is no effect, 100 is complete control
How it was run: as §2

ragweed [7] = assay: Test A preemergence; type: in vivo, Ambrosia artemisiifolia; details: visual injury after 10 days, 0 to 100 scale, 0 is no effect, 100 is complete control
How it was run: as §2

ryegrass, Italian [8] = assay: Test A preemergence; type: in vivo, Lolium multiflorum; details: visual injury after 10 days, 0 to 100 scale, 0 is no effect, 100 is complete control
How it was run: as §2

soybean [9] = assay: Test A preemergence; type: in vivo, Glycine max; details: visual injury after 10 days, 0 to 100 scale, 0 is no effect, 100 is complete control
How it was run: as §2

wheat [10] = assay: Test A preemergence; type: in vivo, Triticum aestivum; details: visual injury after 10 days, 0 to 100 scale, 0 is no effect, 100 is complete control
How it was run: as §2

barnyardgrass [11] = assay: Test A postemergence; type: in vivo, Echinochloa crusgalli; details: postemergence, 10 days
Source text: as §1

blackgrass [12] = assay: Test A postemergence; type: in vivo, Alopecurus myosuroides; details: postemergence, 10 days
How it was run: as §2

corn [13] = assay: Test A postemergence; type: in vivo, Zea mays; details: postemergence, 10 days
How it was run: as §2

kochia [14] = assay: Test A postemergence; type: in vivo, Bassia scoparia; details: postemergence, 10 days
How it was run: as §2

oat, wild [15] = assay: Test A postemergence; type: in vivo, Avena fatua; details: postemergence, 10 days
How it was run: as §2

pigweed, palmer [16] = assay: Test A postemergence; type: in vivo, Amaranthus palmeri; details: postemergence, 10 days
How it was run: as §2

ragweed [17] = assay: Test A postemergence; type: in vivo, Ambrosia artemisiifolia; details: postemergence, 10 days
How it was run: as §2

ryegrass, Italian [18] = assay: Test A postemergence; type: in vivo, Lolium multiflorum; details: postemergence, 10 days
How it was run: as §2

soybean [19] = assay: Test A postemergence; type: in vivo, Glycine max; details: postemergence, 10 days
How it was run: as §2

wheat [20] = assay: Test A postemergence; type: in vivo, Triticum aestivum; details: postemergence, 10 days
How it was run: as §2

galium = assay: Test A postemergence; type: in vivo, Galium aparine; details: postemergence, 10 days
How it was run: as §2

horseweed = assay: Test A postemergence; type: in vivo, Erigeron canadensis; details: postemergence, 10 days
How it was run: as §2

barnyardgrass [21] = assay: Test B flooded paddy test; type: in vivo, Echinochloa crus-galli; details: 250 g ai/ha, Flood, 13 days, 0 to 100 scale (0 no effect, 100 complete control)
How it was run: (§3)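 Compound is introduced into paddy water covering soil by 3 cm, treating plants that have reached two leaves. Pots are kept flooded at that depth under greenhouse conditions. Assessment at 13 days gives a 0–100 visual control score.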

ducksalad = assay: Test B flooded paddy test; type: in vivo, Heteranthera limosa; details: 250 g ai/ha, Flood, 13 days, 0 to 100 scale (0 no effect, 100 complete control)
How it was run: as §3

rice = assay: Test B flooded paddy test; type: in vivo, Oryza sativa; details: 250 g ai/ha, Flood, 13 days, 0 to 100 scale (0 no effect, 100 complete control)
How it was run: as §3

sedge, umbrella = assay: Test B flooded paddy test; type: in vivo, Cyperus difformis; details: 250 g ai/ha, Flood, 13 days, 0 to 100 scale (0 no effect, 100 complete control)
How it was run: as §3

[22] = 125 g ai/ha, 0 to 100 scale, 0 no effect, 100 complete control
[23] = 500 g ai/ha, visual injury, 0 to 100 scale (0 no effect, 100 complete control)

C[C@H]1CN(C(=O)c2cc(C3CC3)cc(-n3cncn3)c2)c2cccc(Cl)c2O1 [Compound 136]
30: Plant response rating, Barnyardgrass (barnyardgrass [1]; 125 g ai/ha) | Plant response rating, Corn (corn [3]; 500 g ai/ha) | Plant response rating, Oat, Wild (oat, wild [5]; 500 g ai/ha) | Plant response rating, Wheat (wheat [10]; 500 g ai/ha) | Corn plant response rating (corn [13]; [22]) | Kochia plant response rating (kochia [14]; [22]) | Plant response rating, Oat, Wild (oat, wild [15]; [23]) | Pigweed, Palmer plant response rating (pigweed, palmer [16]; [22]) | Plant response rating, Ragweed (ragweed [17]; [23]) | Plant response rating, Wheat (wheat [20]; [23])
60: Plant response rating, Soybean (soybean [9]; 500 g ai/ha) | Ryegrass, Italian plant response rating (ryegrass, Italian [18]; [22])
10: Plant response rating, Soybean (soybean [9]; 125 g ai/ha) | Plant response rating, Wheat (wheat [10]; 125 g ai/ha) | Oat, Wild plant response rating (oat, wild [15]; [22])
100: Plant response rating, Pigweed, Palmer (pigweed, palmer [6]; 500 g ai/ha) | Plant response rating, Blackgrass (blackgrass [12]; [23]) | Soybean plant response rating (soybean [19]; [22]) | Plant response rating, Soybean (soybean [19]; [23]) | Plant response rating, Galium (galium; [23])
70: Plant response rating, Blackgrass (blackgrass [2]; 125 g ai/ha) | Plant response rating, Kochia (kochia [4]; 500 g ai/ha) | Plant response rating, Pigweed, Palmer (pigweed, palmer [6]; 125 g ai/ha) | Plant response rating, Barnyardgrass (barnyardgrass [11]; [23]) | Plant response rating, Kochia (kochia [14]; [23])
80: Plant response rating, Ryegrass, Italian (ryegrass, Italian [8]; 125 g ai/ha) | Galium plant response rating (galium; [22])
90: Plant response rating, Barnyardgrass (barnyardgrass [1]; 500 g ai/ha) | Plant response rating, Blackgrass (blackgrass [2]; 500 g ai/ha) | Plant response rating, Ryegrass, Italian (ryegrass, Italian [8]; 500 g ai/ha) | Blackgrass plant response rating (blackgrass [12]; [22]) | Plant response rating, Corn (corn [13]; [23]) | Plant response rating, Pigweed, Palmer (pigweed, palmer [16]; [23]) | Plant response rating, Ryegrass, Italian (ryegrass, Italian [18]; [23])
0: Plant response rating, Corn (corn [3]; 125 g ai/ha) | Plant response rating, Kochia (kochia [4]; 125 g ai/ha) | Plant response rating, Ragweed (ragweed [7]; 125 g ai/ha) | Horseweed plant response rating (horseweed; [22]) | Plant response rating, Horseweed (horseweed; [23]) | Plant response rating, Barnyardgrass (barnyardgrass [21]) | Plant response rating, Ducksalad (ducksalad) | Plant response rating, Rice (rice) | Plant response rating, Sedge, Umbrella (sedge, umbrella)
20: Plant response rating, Oat, Wild (oat, wild [5]; 125 g ai/ha) | Plant response rating, Ragweed (ragweed [7]; 500 g ai/ha) | Barnyardgrass plant response rating (barnyardgrass [11]; [22]) | Ragweed plant response rating (ragweed [17]; [22]) | Wheat plant response rating (wheat [20]; [22])
